# According to US20240000946A1, “CARBONIC ANHYDRASE INHIBITORS SYNTHESIZED ON INTERCONNECTING LINKER CHAINS” (VILNIUS UNIVERSITY, priority 2020, published 2024):
# Tests used:
# human recombinant CA II = molecular target: T1, human recombinant CA II (Homo sapiens, UniProt P00918); assay: Fluorescent thermal shift assay (FTSA), CA II; format: binding; conditions: 37° C., pH 7.0
# T1 construct: recombinant human carbonic anhydrase catalytic domains using the fluorescent thermal shift assay; made in house
# Description: (§1) The protein solution in the absence and presence of various compound concentrations was heated from 25 to 99° C. (heating rate 1° C./min). The melting temperature Tm shift was determined by following the fluorescence of 8-anilino-1-naphthalene sulfonate (ANS). The samples consisted of 5 μM protein (except 10 μM for CA IV), different concentrations of compound (usually 0-200 μM), 50 μM ANS and 50 mM sodium phosphate buffer (at pH 7.0) containing 100 mM sodium chloride and 2% (v/v) of DMSO. Compound binding constant was obtained from protein Tm as a function of the added ligand concentration. Data analysis was performed, and the curves were fit so that the binding constant is determined for 37° C.
# human recombinant CA I = molecular target: T2, human recombinant CA I (Homo sapiens, UniProt P00915); assay: Fluorescent thermal shift assay (FTSA), CA I; format: binding; conditions: 37° C., pH 7.0
# T2 construct: recombinant human carbonic anhydrase catalytic domains using the fluorescent thermal shift assay; made in house
# Description: as §1
# human recombinant CA XII = molecular target: T3, human recombinant CA XII (Homo sapiens, UniProt O43570); assay: Fluorescent thermal shift assay (FTSA), CA XII; format: binding; conditions: 37° C., pH 7.0
# T3 construct: recombinant human carbonic anhydrase catalytic domains using the fluorescent thermal shift assay; made in house
# Description: as §1
# human recombinant CA VII = molecular target: T4, human recombinant CA VII (Homo sapiens, UniProt P43166); assay: Fluorescent thermal shift assay (FTSA), CA VII; format: binding; conditions: 37° C., pH 7.0
# T4 construct: recombinant human carbonic anhydrase catalytic domains using the fluorescent thermal shift assay; made in house
# Description: as §1
# human recombinant CA VA = molecular target: T5, human recombinant CA VA (Homo sapiens, UniProt P35218); assay: Fluorescent thermal shift assay (FTSA), CA VA; format: binding; conditions: 37° C., pH 7.0
# T5 construct: recombinant human carbonic anhydrase catalytic domains using the fluorescent thermal shift assay; made in house
# Description: as §1
# [1] = molecular target: T6, human recombinant CA XIII (Homo sapiens, UniProt Q8N1Q1); assay: Fluorescent thermal shift assay (FTSA), CA XIII; format: binding; conditions: 37° C., pH 7.0
# T6 construct: recombinant human carbonic anhydrase catalytic domains using the fluorescent thermal shift assay; made in house
# Description: as §1
# human recombinant CA VI = molecular target: T7, human recombinant CA VI (Homo sapiens, UniProt P23280); assay: Fluorescent thermal shift assay (FTSA), CA VI; format: binding; conditions: 37° C., pH 7.0
# T7 construct: recombinant human carbonic anhydrase catalytic domains using the fluorescent thermal shift assay; made in house
# Description: as §1
# human recombinant CA III = molecular target: T8, human recombinant CA III (Homo sapiens, UniProt P07451); assay: Fluorescent thermal shift assay (FTSA), CA III; format: binding; conditions: 37° C., pH 7.0
# T8 construct: recombinant human carbonic anhydrase catalytic domains using the fluorescent thermal shift assay; made in house
# Description: as §1
# human recombinant CA VB = molecular target: T9, human recombinant CA VB (Homo sapiens, UniProt Q9Y2D0); assay: Fluorescent thermal shift assay (FTSA), CA VB; format: binding; conditions: 37° C., pH 7.0
# T9 construct: recombinant human carbonic anhydrase catalytic domains using the fluorescent thermal shift assay; made in house
# Description: as §1
# human recombinant CA IX = molecular target: T10, human recombinant CA IX (Homo sapiens, UniProt Q16790); assay: Fluorescent thermal shift assay (FTSA), CA IX; format: binding; conditions: 37° C., pH 7.0
# T10 construct: recombinant human carbonic anhydrase catalytic domains using the fluorescent thermal shift assay; made in house
# Description: as §1
# human recombinant CA XIV = molecular target: T11, human recombinant CA XIV (Homo sapiens, UniProt Q9ULX7); assay: Fluorescent thermal shift assay (FTSA), CA XIV; format: binding; conditions: 37° C., pH 7.0
# T11 construct: recombinant human carbonic anhydrase catalytic domains using the fluorescent thermal shift assay; made in house
# Description: as §1
# human recombinant CA IV = molecular target: T12, human recombinant CA IV (Homo sapiens, UniProt P22748); assay: Fluorescent thermal shift assay (FTSA), CA IV; format: binding; conditions: 37° C., pH 7.0
# T12 construct: recombinant human carbonic anhydrase catalytic domains using the fluorescent thermal shift assay; made in house
# Description: as §1
# carbonic anhydrase IX = molecular target: T13, carbonic anhydrase IX (Homo sapiens, UniProt Q16790); assay: Inhibition of CA enzymatic (CO2 hydratase) activity; format: biochemical
# T13 construct: made in house
# Description: The inhibition of hydratase activity of carbonic anhydrase I, II, and IX was performed using Applied Photophysics SX.18 MV-R instrument at 24° C. Theaturated substrate solution was prepared by bubbling carbon dioxide gas into Milly-Q water for 1 hour at room temperature. Phenol red was used as a pH indicator to follow the absorbance (A-557 nm) while CA acidified the medium. […] Raw curves were fitted using a single exponential model, and the dissociation constants were determined using the Morrison equation: […]
# Where [CA] is a total added concentration of active CA, [I]—total added inhibitor concentration, and Kd is inhibitor binding affinity.
# HeLa cancer cell culture = assay: Acidification of extracellular medium by hypoxic HeLa cell culture; format: cell-based, human; conditions: 1 μM compound
# Description: FIG. 6. HeLa cancer cell culture grown for 48 hours under hypoxic (1% O2) conditions caused acidification of extracellular medium as visualized by pH drop from initial pH 7.74 (shown as a dashed bold line) to pH 6.35.
# T5 sequence (P35218 39-296 limits assumed): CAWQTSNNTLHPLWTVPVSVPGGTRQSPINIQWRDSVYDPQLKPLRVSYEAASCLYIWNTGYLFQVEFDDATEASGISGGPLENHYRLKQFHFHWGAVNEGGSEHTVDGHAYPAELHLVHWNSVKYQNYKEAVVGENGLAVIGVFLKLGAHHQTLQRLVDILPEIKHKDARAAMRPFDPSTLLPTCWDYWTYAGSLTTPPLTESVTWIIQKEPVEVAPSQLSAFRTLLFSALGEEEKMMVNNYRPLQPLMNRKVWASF
# T2 sequence (P00915 4-261 limits assumed): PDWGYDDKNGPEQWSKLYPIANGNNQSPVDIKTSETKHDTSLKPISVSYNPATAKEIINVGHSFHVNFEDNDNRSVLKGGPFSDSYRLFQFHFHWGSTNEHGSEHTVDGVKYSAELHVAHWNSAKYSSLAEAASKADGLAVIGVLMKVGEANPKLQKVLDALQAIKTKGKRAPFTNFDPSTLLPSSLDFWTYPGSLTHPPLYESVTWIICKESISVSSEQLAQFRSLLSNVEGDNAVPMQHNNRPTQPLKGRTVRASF
# T12 sequence (P22748 21-285 limits assumed): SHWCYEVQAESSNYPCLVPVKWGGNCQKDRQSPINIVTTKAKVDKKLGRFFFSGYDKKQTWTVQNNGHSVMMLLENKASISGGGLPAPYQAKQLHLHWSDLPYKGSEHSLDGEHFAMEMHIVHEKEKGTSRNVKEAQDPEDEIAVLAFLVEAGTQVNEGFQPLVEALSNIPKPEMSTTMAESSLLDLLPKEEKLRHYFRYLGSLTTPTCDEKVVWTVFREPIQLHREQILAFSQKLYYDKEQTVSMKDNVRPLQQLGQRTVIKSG
# T8 sequence (P07451 3-259 limits assumed): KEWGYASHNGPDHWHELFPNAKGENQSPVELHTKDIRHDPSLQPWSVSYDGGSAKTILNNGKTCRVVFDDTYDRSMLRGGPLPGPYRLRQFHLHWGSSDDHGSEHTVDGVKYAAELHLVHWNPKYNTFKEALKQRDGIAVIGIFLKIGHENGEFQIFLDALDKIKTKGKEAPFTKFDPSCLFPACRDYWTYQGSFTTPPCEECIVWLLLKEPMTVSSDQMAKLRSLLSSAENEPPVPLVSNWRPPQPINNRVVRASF
# T3 sequence (O43570 30-289 limits assumed): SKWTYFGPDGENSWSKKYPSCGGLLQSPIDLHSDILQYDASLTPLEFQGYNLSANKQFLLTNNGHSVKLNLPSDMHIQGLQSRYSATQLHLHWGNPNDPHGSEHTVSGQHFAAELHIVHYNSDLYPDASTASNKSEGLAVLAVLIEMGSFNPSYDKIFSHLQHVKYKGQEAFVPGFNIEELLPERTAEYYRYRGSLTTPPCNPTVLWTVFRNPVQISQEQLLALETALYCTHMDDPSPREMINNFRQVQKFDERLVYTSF
# T11 sequence (Q9ULX7 20-278 limits assumed): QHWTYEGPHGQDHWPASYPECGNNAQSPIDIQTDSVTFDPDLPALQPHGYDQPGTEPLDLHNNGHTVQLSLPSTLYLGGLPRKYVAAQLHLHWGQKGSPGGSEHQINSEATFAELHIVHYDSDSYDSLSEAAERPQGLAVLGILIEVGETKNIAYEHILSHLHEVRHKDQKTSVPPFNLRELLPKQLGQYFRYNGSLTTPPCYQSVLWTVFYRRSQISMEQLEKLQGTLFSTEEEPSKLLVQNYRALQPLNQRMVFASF
# T6 sequence (Q8N1Q1 4-261 limits assumed): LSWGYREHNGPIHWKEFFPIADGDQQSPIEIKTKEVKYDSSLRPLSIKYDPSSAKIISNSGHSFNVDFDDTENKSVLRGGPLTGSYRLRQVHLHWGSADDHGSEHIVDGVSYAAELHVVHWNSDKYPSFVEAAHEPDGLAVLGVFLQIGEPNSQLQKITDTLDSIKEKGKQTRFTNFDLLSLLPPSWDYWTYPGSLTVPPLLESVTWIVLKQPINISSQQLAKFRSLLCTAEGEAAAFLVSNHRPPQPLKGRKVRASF
# T4 sequence (P43166 5-262 limits assumed): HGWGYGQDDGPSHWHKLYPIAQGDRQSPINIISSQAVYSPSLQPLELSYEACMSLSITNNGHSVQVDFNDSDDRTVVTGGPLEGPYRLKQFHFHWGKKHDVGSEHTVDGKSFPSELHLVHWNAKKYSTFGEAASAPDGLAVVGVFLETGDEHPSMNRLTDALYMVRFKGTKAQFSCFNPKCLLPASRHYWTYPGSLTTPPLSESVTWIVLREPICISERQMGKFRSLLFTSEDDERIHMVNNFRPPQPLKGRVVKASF
# T9 sequence (Q9Y2D0 37-296 limits assumed): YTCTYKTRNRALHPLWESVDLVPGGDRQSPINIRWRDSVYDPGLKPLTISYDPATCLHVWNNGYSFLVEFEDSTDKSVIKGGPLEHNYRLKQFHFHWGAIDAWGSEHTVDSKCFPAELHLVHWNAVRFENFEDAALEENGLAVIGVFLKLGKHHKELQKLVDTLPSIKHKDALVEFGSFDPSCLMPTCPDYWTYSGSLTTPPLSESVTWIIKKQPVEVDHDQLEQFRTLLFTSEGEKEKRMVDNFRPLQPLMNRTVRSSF
# T7 sequence (P23280 21-278 limits assumed): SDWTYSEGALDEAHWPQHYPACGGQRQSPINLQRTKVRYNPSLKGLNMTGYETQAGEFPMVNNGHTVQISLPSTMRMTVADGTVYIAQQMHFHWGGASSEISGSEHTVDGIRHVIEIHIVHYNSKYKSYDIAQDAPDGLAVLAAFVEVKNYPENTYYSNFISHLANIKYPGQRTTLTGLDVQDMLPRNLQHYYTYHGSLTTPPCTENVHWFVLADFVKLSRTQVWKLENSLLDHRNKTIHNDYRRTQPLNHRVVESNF
Kd (human recombinant CA II) [nM],Kd (human recombinant CA I) [nM],Kd (human recombinant CA XII) [nM],Kd (human recombinant CA VII) [nM],Kd (human recombinant CA VA) [nM],Kd [1] [nM],Kd (human recombinant CA VI) [nM],Kd (human recombinant CA III) [nM],Kd (human recombinant CA VB) [nM],Kd (human recombinant CA IX) [nM],Kd (human recombinant CA XIV) [nM],Kd (human recombinant CA IV) [nM],"IC50 (carbonic anhydrase IX; 50 nM enzyme CA IX, compound titrates the enzyme, read-out: Compound concentration at 50% remaining activity of CA IX) [nM]",Kd (carbonic anhydrase IX; read-out: Real affinity for CA IX as bounded by enzymatic inhibition) [nM],Compound,Inhibition of acidification at 1 μM (HeLa cancer cell culture)
450,10000,50,150,7100,50,980,≥ 200000,83,0.1,27,1000,–,–,"NS(=O)(=O)c1c(F)c(F)c(S(=O)(=O)CCNC(=O)CCOCCOCCOCCOCCOCCOCCOCCOCCOCCOCCOCCOCCNC(=O)CCCCC2SCC3NC(=O)NC32)c(NC2CCCCCCC2)c1F (centres unmarked) [AZ19-1, N-[2-[2-[2-[2-[2-[2-[2-[2-[2-[2-[2-[2-[3-[2-[2-(cyclooctylamino)-3,5,6-trifluoro-4-sulfamoyl-phenyl]sulfonylmethylamine]-3-oxo-propoxy]ethoxy]ethoxy]ethoxy]ethoxy]ethoxy]ethoxy]ethoxy]ethoxy]ethoxy]ethoxy]ethoxy]ethyl]-5-(2-oxo-1,3,3a,4,6,6a-hexahydrothieno[3,4-d]imidazol-4-yl)pentanamide]",–
250,10000,20,50,10000,20,500,≥ 200000,70,0.05,10,1000,–,–,"NS(=O)(=O)c1c(F)c(F)c(S(=O)(=O)CCNC(=O)CCOCCOCCOCCOCCOCCOCCOCCOCCOCCOCCOCCOCCOCCC(=O)O)c(NC2CCCCCCC2)c1F [AZ19-3-1, 3-[2-[2-[2-[2-[2-[2-[2-[2-[2-[2-[2-[2-[3-[2-[2-(cyclooctylamino)-3,5,6-trifluoro-4-sulfamoyl-phenyl]sulfonylethylamino]-3-oxo-propoxy]ethoxy]ethoxy]ethoxy]ethoxy]ethoxy]ethoxy]ethoxy]ethoxy]ethoxy]ethoxy]ethoxy]ethoxy]propanoic acid]",–
100,3300,20,330,3000,2,–,≥ 200000,70,0.015,8.3,250,~10,< 10,"NS(=O)(=O)c1c(F)c(F)c(S(=O)(=O)CCNC(=O)CCOCCOCCOCCOCCOCCOCCOCCOCCOCCOCCOCCOCCOCCC(=O)NCCS(=O)(=O)c2c(F)c(F)c(S(N)(=O)=O)c(F)c2NC2CCCCCCC2)c(NC2CCCCCCC2)c1F [AZ19-3-2, N-[2-[2-(cyclooctylamino)-3,5,6-trifluoro-4-sulfamoyl-phenyl]sulfonylethyl]-3-[2-[2-[2-[2-[2-[2-[2-[2-[2-[2-[2-[2-[3-[2-[2-(cyclooctylamino)-3,5,6-trifluoro-4-sulfamoyl-phenyl]sulfonylethylamino]-3-oxo-propoxy]ethoxy]ethoxy]ethoxy]ethoxy]ethoxy]ethoxy]ethoxy]ethoxy]ethoxy]ethoxy]ethoxy]ethoxy]propanamide]",mostly inhibited
